Measured values: patent US4731383A, “Aminoguanidine compounds, their compositions and pharmaceutical uses” (Biogal Gyogyszergyar, priority 1983, dated 1988)
Where a name gives a salt, the structure may show the parent alone. Read-outs that look alike come from different tables or passages of the source.

Assays:
[1] = test system: mice treated with aconitin; test: animal or person; assay type: in vivo; settings: Mus musculus, read-out: Delay in the appearance time of arrhythmia
Description: Arrhytmia was induced in male mice, weighing 20 to 25 g, by treating them continuously, at a rate of 0.2 ml/min with an infusion containing 5 μg/kg of aconitin. The test compound was administered to the animals either intraperitoneally (by injecting it into the abdominal cavity) 15 minutes before the start of the infusion, or orally 60 minutes before the onset of the infusion. The time of the appearance of arrhythmia was recorded, and the percentage of delay was calculated in relation to the data obtained in the controls, pretreated with 0.9 percent sodium chloride solution only [B. Vargaftig and J. L. Coignet: European J. of Pharmacol. 6, 49 to 55 (1969); N. K. Dadkar and B. K. Bhattachariya: Arch. Int. Pharmacodyn. 212, 297 to 301 (1974); D. U. Nwagwu, T. L. Holcslaw and S. J. Stohs: Arch. Int. Pharmacodyn. 229, 219 to 226 (1977)].

[2] = test system: anaesthesized cats, fibrillation threshold of the heart; test: Determination of the fibrillation threshold in anaesthetized cats; assay type: in vivo; settings: cat
Excerpt: The chests of the cats were opened under chloralose-urethane anaesthesia, a bipolar stimulating electrode was fixed onto the heart, and the heart was stimulated electrically with a frequency of 20 Hz, under continuously increasing current strength, until a fibrillo-flattern could be observed. This current strength was considered as the fibrillation threshold of the animal.

[3] = test system: right ventricle of isolated rabbit heart; test: Electrophysiological tests in the isolated rabbit heart, right ventricle; settings: 2.0 mg/l, n = 4
Description: (§1) Hearts of rabbits of both sexes, weighing 1 to 2 kg, were removed, the right and left auricles and a segment of the right ventricle were prepared and placed into a vessel filled with nutrient solution. Bipolar platinum electrodes (a stimulating electrode and a lead electrode) were placed on the organ strips, and the electric stimulus threshold and the speed of impulse conduction were measured. The effective refractory period was determined on the basis of the maximal driving frequency.

[4] = test system: left auricle of isolated rabbit heart; test: Electrophysiological tests in the isolated rabbit heart, left auricle; settings: 2.0 mg/l, n = 4
Description: as §1

in vivo = settings: mouse
[5] = 2.0 mg/kg i.v., 2 min following treatment
[6] = 2.0 mg/kg i.v., 10 min following treatment
[7] = 2.0 mg/kg i.v., 20 min following treatment
[8] = 4.0 mg/kg i.v., 2 min following treatment
[9] = 4.0 mg/kg i.v., 10 min following treatment
[10] = 4.0 mg/kg i.v., 20 min following treatment
[11] = 20 mg/kg i.d., 10 minutes following treatment
[12] = 20 mg/kg i.d., 20 minutes following treatment
[13] = 20 mg/kg i.d., 30 minutes following treatment
[14] = 20 mg/kg i.d., 40 minutes following treatment
[15] = 20 mg/kg i.d., 50 minutes following treatment
[16] = 20 mg/kg i.d., 60 minutes following treatment
[17] = 20 mg/kg i.d., 70 minutes following treatment
[18] = 20 mg/kg i.d., 80 minutes following treatment
[19] = 20 mg/kg i.d., 90 minutes following treatment
[20] = 20 mg/kg i.d., 100 minutes following treatment

## Cc1ccccc1NNC(=N)N1CCCC1 [Example 7]
[1]; ip
  change in vivo at 25 mg/kg: 50%
  change in vivo at 50 mg/kg: 128%
[1]; po
  change in vivo at 50 mg/kg: 54%
  change in vivo at 100 mg/kg: 137%

## CN(C)C(=N)NNc1ccccc1Cl [Example 6]
[1]; ip
  change in vivo at 50 mg/kg: 114%
[1]; po
  change in vivo at 100 mg/kg: 70%

## CC1CCCCN1C(=N)NNc1ccccc1Cl (stereo not drawn) [Example 8]
[1]; ip
  change in vivo at 5 mg/kg: 32%
  change in vivo at 10 mg/kg: 110%

## C=C[C@H]1C[N@@]2CC[C@H]1C[C@@H]2[C@@H](O)c1ccnc2ccc(OC)cc12 [Quinidine, quinidine, reference compound]
[2]; 10 mg/kg i.d., 10 minutes following treatment
  Percentual change in the fibrillation threshold: +0.4%
[2]; 10 mg/kg i.d., 20 minutes following treatment
  Percentual change in the fibrillation threshold: +26.7%
[2]; 10 mg/kg i.d., 30 minutes following treatment
  Percentual change in the fibrillation threshold: +58.5%
[2]; 10 mg/kg i.d., 40 minutes following treatment
  Percentual change in the fibrillation threshold: +48.5%
[2]; 10 mg/kg i.d., 50 minutes following treatment
  Percentual change in the fibrillation threshold: +32.1%
[2]; 10 mg/kg i.d., 70 minutes following treatment
  Percentual change in the fibrillation threshold: +9.5%
[2]; 10 mg/kg i.d., 80 minutes following treatment
  Percentual change in the fibrillation threshold: +8.8%
[2]; 10 mg/kg i.d., 90 minutes following treatment
  Percentual change in the fibrillation threshold: +3.8%
[2]; 10 mg/kg i.d., 100 minutes following treatment
  Percentual change in the fibrillation threshold: 0.0%

## CN(C)C(=N)NNc1ccccc1 [Example 18]
[1]; po
  change in vivo at 100 mg/kg: 74%

## Cc1cccc(C)c1OCC(C)N.Cl (stereo not drawn) [Mexiletin, 1-(2,6-Dimethylphenoxy)-2-aminopropane hydrochloride, reference compound]
[1]; ip
  change in vivo at 5 mg/kg: 3.5%
  change in vivo at 10 mg/kg: 7.7%
  change in vivo at 25 mg/kg: 33%
  change in vivo at 50 mg/kg: 83%
  change in vivo at 75 mg/kg: 162%
[1]; po
  change in vivo at 100 mg/kg: 93%
[2]; 10.0 mg/kg i.v., 10 min following treatment
  Percentual change in the fibrillation threshold: +161.2%
[2]; 10.0 mg/kg i.v., 20 min following treatment
  Percentual change in the fibrillation threshold: +92.0%
[3]
  Change in conduction time: +11%
  Change in electric stimulus threshold: +6%
  Change in max. driving frequency: -28%
[4]
  Change in conduction time: +24%
  Change in electric stimulus threshold: 36%
  Change in max. driving frequency: -32%

## CN(C)C(=N)NNc1cccc(Cl)c1 [Example 9]
[1]; ip
  change in vivo at 50 mg/kg: 171%

## Cc1cccc(C)c1NNC(=N)N1CCCC1 [Example 11]
[2]; [5]
  Percentual change in the fibrillation threshold: +130.6%
[2]; [6]
  Percentual change in the fibrillation threshold: +149.0%
[2]; [7]
  Percentual change in the fibrillation threshold: +163.3%
[2]; [8]
  Percentual change in the fibrillation threshold: +176.0%
[2]; [9]
  Percentual change in the fibrillation threshold: +328.0%
[2]; [10]
  Percentual change in the fibrillation threshold: +316.0%
[2]; [11]
  Percentual change in the fibrillation threshold: +5.8%
[2]; [12]
  Percentual change in the fibrillation threshold: +22.0%
[2]; [13]
  Percentual change in the fibrillation threshold: +43.8%
[2]; [14]
  Percentual change in the fibrillation threshold: +79.6%
[2]; [15]
  Percentual change in the fibrillation threshold: +115%
[2]; [16]
  Percentual change in the fibrillation threshold: +118%
[2]; [17]
  Percentual change in the fibrillation threshold: +141%
[2]; [18]
  Percentual change in the fibrillation threshold: +198%
[2]; [19]
  Percentual change in the fibrillation threshold: +209.5%
[2]; [20]
  Percentual change in the fibrillation threshold: +272.5%

## CN(C)C(=N)NNc1c(Cl)cccc1Cl [Example 2, 1-(2,6-Dichlorophenyl)-4,4-dimethyl-aminoguanidine]
[1]; ip
  change in vivo at 25 mg/kg: 79%
  change in vivo at 50 mg/kg: 156%
[1]; po
  change in vivo at 25 mg/kg: 39%
  change in vivo at 50 mg/kg: 71%
  change in vivo at 100 mg/kg: 150%
In vivo; ip
  LD50: 73 mg/kg
In vivo; po
  LD50: 220 mg/kg

## Cc1cccc(C)c1NNC(=N)N(C)C [Example 5]
[1]; ip
  change in vivo at 25 mg/kg: 113%
  change in vivo at 50 mg/kg: 155%
[1]; po
  change in vivo at 100 mg/kg: 111%
[2]; 0.5 mg/kg i.v., 2 min following treatment
  Percentual change in the fibrillation threshold: +18.75%
[2]; 0.5 mg/kg i.v., 10 min following treatment
  Percentual change in the fibrillation threshold: +40.75%
[2]; 0.5 mg/kg i.v., 20 min following treatment
  Percentual change in the fibrillation threshold: +37.6%
[2]; 1.0 mg/kg i.v., 2 min following treatment
  Percentual change in the fibrillation threshold: +35.2%
[2]; 1.0 mg/kg i.v., 10 min following treatment
  Percentual change in the fibrillation threshold: +55.2%
[2]; 1.0 mg/kg i.v., 20 min following treatment
  Percentual change in the fibrillation threshold: +48.4%
[2]; [5]
  Percentual change in the fibrillation threshold: +101.1%
[2]; [6]
  Percentual change in the fibrillation threshold: +93.0%
[2]; [7]
  Percentual change in the fibrillation threshold: +94.15%
[2]; [8]
  Percentual change in the fibrillation threshold: +153.3%
[2]; [9]
  Percentual change in the fibrillation threshold: +125.65%
[2]; [10]
  Percentual change in the fibrillation threshold: +124.0%
[2]; 8.0 mg/kg i.v., 2 min following treatment
  Percentual change in the fibrillation threshold: +392.8%
[2]; 8.0 mg/kg i.v., 10 min following treatment
  Percentual change in the fibrillation threshold: +354.5%
[2]; 8.0 mg/kg i.v., 20 min following treatment
  Percentual change in the fibrillation threshold: +310.25%
[2]; [11]
  Percentual change in the fibrillation threshold: +22.2%
[2]; [12]
  Percentual change in the fibrillation threshold: +29.0%
[2]; [13]
  Percentual change in the fibrillation threshold: +94.0%
[2]; [14]
  Percentual change in the fibrillation threshold: +103.7%
[2]; [15]
  Percentual change in the fibrillation threshold: +100.4%
[2]; [16]
  Percentual change in the fibrillation threshold: +105.8%
[2]; [17]
  Percentual change in the fibrillation threshold: +100.3%
[2]; [18]
  Percentual change in the fibrillation threshold: +121.5%
[2]; [19]
  Percentual change in the fibrillation threshold: +132.8%
[2]; [20]
  Percentual change in the fibrillation threshold: +132.3%
In vivo; ip
  LD50: 130 mg/kg
In vivo; po
  LD50: 400 mg/kg

## CCN(CC)C(=N)NNc1ccccc1Cl [Example 3, 1-(2-Chlorophenyl)-4,4-diethyl-aminoguanidine hydrochloride]
[1]; ip
  change in vivo at 10 mg/kg: 108%
  change in vivo at 20 mg/kg: 68%

## CCc1cccc(C)c1NNC(=N)N(C)C [Example 21]
[1]; ip
  change in vivo at 25 mg/kg: 110%
  change in vivo at 50 mg/kg: 86%

## CCN(CC)C(=N)NNc1ccccc1C [Example 4, 1-(2-Methyl-phenyl)-4,4-diethyl-aminoguanidine hydrochloride]
[1]; ip
  change in vivo at 5 mg/kg: 28%
  change in vivo at 10 mg/kg: 77%

## Cc1ccccc1NNC(=N)N1CCOCC1 [Example 22]
[1]; ip
  change in vivo at 50 mg/kg: 100%
